Assays:
[1] = Pharmacokinetics of gemcitabine and dFdU in urine and plasma after TAR-200; conditions: for Mean cumulative excreted amount in urine as percentage of the administered dose: 0-168 hours after TAR-200; for Tmax: human, urine, other: intravesical, 225 mg gemcitabine
[2] = tested on: HR NMIBC (CIS with or without papillary disease) unresponsive to prior intravesical BCG therapy; design: species or system human; conditions: in vivo

O=c1ccn([C@@H]2O[C@H](CO)[C@@H](O)C2(F)F)c(=O)[nH]1 [dFdU, 2′,2′ difluorodeoxyuridine]
Mean cumulative excreted amount in urine as percentage of the administered dose [1]: 11.1-23.3% | Tmax [1]: 72 to 144 h

Nc1ccn([C@@H]2O[C@H](CO)[C@@H](O)C2(F)F)c(=O)n1 [gemcitabine]
Mean cumulative excreted amount in urine as percentage of the administered dose [1]: 36.2-53.8% | Mean gemcitabine concentration in urine versus tumoricidal concentration ([1]; after TAR-200 (225 mg gemcitabine)): > 3 µg/mL | Tmax [1]: 48 to 96 h | 12-month CR rate, all TAR-200 treated patients [2]: 64% | Responders who achieved CR at the 12 weeks disease assessment [2]: 47 out of 48 | effectiveness versus existing standard of care [2]: nearly two times as effective

From patent US20260174788A1 (priority 2023, published 2026)
